In US10350210B2, “EGFR and ALK dual inhibitor” (PRECEDO PHARMACEUTICALS CO., LTD, priority 2015, dated 2019):

Experiments:
BaF3-EML4-ALK = assay: Cell growth (Cell Titer-Glo viability), BaF3-EML4-ALK; type: cell-based; conditions: Mus musculus, Ba/F3 EML4-ALK; BaF3-EML4-ALK (stably expressing EML4-ALK protein), 72 hrs
Excerpt: (§1) By testing the effect of the novel kinase inhibitors on the proliferation of cancer cells, the selectivity of the compounds of the present disclosure in inhibiting the proliferation of cancer cells was further assessed. In this example, human non-small cell lung cancer cell NCI-H1975 (expressing EGFR L858R/T790M double mutant gene), human skin squamous carcinoma cell A431 (expressing wild-type EGFR gene), non-small cell lung cancer NCI-H3255 (expressing EGFR L858R mutant gene), non-small cell lung cancer cell NCI-H3122 (expressing ALK gene), human non-small cell lung cancer cell A549 (expressing wild-type EGFR gene), human non-small cell lung cancer cell NCI-H2122 (expressing wild-type EGFR gene), human non-small cell lung cancer cell NCI-H460 (expressing wild-type EGFR gene), human non-small cell lung cancer cell PC-9 (expressing EGFR delE746_A750 mutant gene), Chinese hamster ovary cell CHO (Cricetulus griseus, hamster, Chinese, ovary), Chinese hamster lung cell CHL, human non-small cell lung cancer cell HCC827 (expressing mutant EGFR del19 gene), human lung adenocarcinoma cell HCC4006 (expressing mutant EGFR del19 gene), human non-small cell lung cancer cell NCI-H2228 (expressing wild-type ALK gene), and mouse primary B cell BaF3 were used, and the above cells were all purchased from ATCC (US). In addition, mouse BaF3-TEL-ALK (stably expressing ALK kinase), mouse BaF3-ALK-F1174L (stably expressing mutant ALK F1174L kinase), mouse BaF3-NPM-ALK (stably expressing ALK kinase), mouse BaF3-TEL-EGFR (stably expressing EGFR kinase), mouse BaF3-TEL-EGFR-T790M (stably expressing EGFR T790M mutant kinase), mouse BaF3-FL-EGFR-Del19 (stably expressing EGFR delE746_A750 mutant kinase), mouse BaF3-TEL-EGFR-L858R (stably expressing EGFR L858R mutant kinase), mouse BaF3-FL-EGFR-T790M-L858R (stably expressing EGFR T790M/L858R mutant kinase), mouse BaF3-TEL-INSR (stably expressing INSR protein), mouse BaF3-TEL-IGF1R (stably expressing IGF1R Protein), mouse BaF3-EML4-ALK (stably expressing EML4-ALK Protein), mouse BaF3-TEL-JAK3 (stably expressing JAK3 kinase protein), mouse BaF3-TEL-CSF1R (stably expressing CSF1R protein), and mouse BaF3-TEL-ALK-F1196M (stably expressing ALK F1196M mutant kinase) were also used in this example. The above cell lines were all established by our laboratory via the following process: kinase proteins or protein domain sequences of human ALK, ALK F1174L, EGFR, EGFR T790M, EGFR delE746_A750, EGFR L858, EGFR T790M/L858R, INSR, IGF1R, EML4-ALK, JAK3, CSF1R, ALK F1196M were amplified respectively by PCR, and were respectively inserted into MSCV-Puro vector (Clontech) with N-terminal TEL fragments and/or NPM fragments and/or TPR fragments; the resultants were stably transfected into mouse BaF3 cells by the means of retrovirus, and the IL-3 growth factors were removed, and eventually the ALK, ALK F1174L, EGFR, EGFR T790M, EGFR delE746_A750, EGFR L858, EGFR T790M/L858R, INSR, IGF1R, EML4-ALK, JAK3, CSF1R, ALK F1196M-transferred protein dependent cell lines were obtained.
(§2) The number of viable cells was determined quantitatively by a microplate reader using Cell Titer-Glo® (Promega, US) chemiluminescence cell viability assay kit.

BaF3-TEL-INSR = assay: Cell growth (Cell Titer-Glo viability), BaF3-TEL-INSR; type: cell-based; conditions: Mus musculus; BaF3-TEL-INSR (stably expressing INSR protein), 72 hrs
Excerpt: as §1, §2

NCI-H1975 = assay: Growth of cancer cells (Cell Titer-Glo viability), NCI-H1975; type: cell-based; conditions: Homo sapiens; NCI-H1975 (EGFR L858R/T790M double mutant), 72 hrs
In short: (§3)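 Cells are counted as viable by CellTiter-Glo chemiluminescence. Murine BaF3 lines depend on a stably transfected TEL-fused kinase after IL-3 withdrawal, and the NSCLC lines express mutant EGFR.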

BaF3-TEL-JAK3 = assay: Cell growth (Cell Titer-Glo viability), BaF3-TEL-JAK3; type: cell-based; conditions: Mus musculus; BaF3-TEL-JAK3 (stably expressing JAK3 kinase protein), 72 hrs
Excerpt: as §1, §2

PC-9 = assay: Growth of cancer cells (Cell Titer-Glo viability), PC-9; type: cell-based; conditions: Homo sapiens; PC-9 (EGFR delE746_A750 mutant), 72 hrs
In short: as §3

BaF3-TEL-ALK = assay: Cell growth (Cell Titer-Glo viability), BaF3-TEL-ALK; type: cell-based; conditions: Mus musculus; BaF3-TEL-ALK (stably expressing ALK kinase), 72 hrs
In short: (§4)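 BaF3, TEL-kinase fusion, IL-3-free, transgene-driven growth; HCC827 = EGFR del19, NCI-H3255 = EGFR L858R. Viable cells via CellTiter-Glo, plate-reader luminescence.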

A549 = assay: Growth of cancer cells (Cell Titer-Glo viability), A549; type: cell-based; conditions: Homo sapiens; A549 (wild-type EGFR), 72 hrs
NCI-H3122 = assay: Growth of cancer cells (Cell Titer-Glo viability), NCI-H3122; type: cell-based; conditions: Homo sapiens; NCI-H3122 (expressing ALK gene), 72 hrs; read-out: GI50
BaF3 = assay: Cell growth (Cell Titer-Glo viability), BaF3; type: cell-based; conditions: BaF3 mouse primary B cell, 72 hrs
BaF3-TEL-EGFR-T790M = assay: Cell growth (Cell Titer-Glo viability), BaF3-TEL-EGFR-T790M; type: cell-based; conditions: Mus musculus; BaF3-TEL-EGFR-T790M (EGFR T790M mutant kinase), 72 hrs
In short: as §4

HCC827 = assay: Growth of cancer cells (Cell Titer-Glo viability), HCC827; type: cell-based; conditions: Homo sapiens; HCC827 (mutant EGFR del19), 72 hrs
In short: as §4

BaF3-TEL-IGF1R = assay: Cell growth (Cell Titer-Glo viability), BaF3-TEL-IGF1R; type: cell-based; conditions: Mus musculus; BaF3-TEL-IGF1R (stably expressing IGF1R protein), 72 hrs
Excerpt: as §1, with “The above cell lines were all established by our laboratory via the following process: kinase proteins or protein domain sequences of human ALK, ALK F1174L, EGFR, EGFR T790M, EGFR delE746_A750, EGFR L858, EGFR T790M/L858R, INSR, IGF1R, EML4-ALK, JAK3, CSF1R, ALK F1196M were amplified respectively by PCR, and were respectively inserted into MSCV-Puro vector (Clontech) with N-terminal TEL fragments and/or NPM fragments and/or TPR fragments; the resultants were stably transfected into mouse BaF3 cells by the means of retrovirus, and the IL-3 growth factors were removed, and eventually the ALK, ALK F1174L, EGFR, EGFR T790M, EGFR delE746_A750, EGFR L858, EGFR T790M/L858R, INSR, IGF1R, EML4-ALK, JAK3, CSF1R, ALK F1196M-transferred protein dependent cell lines were obtained.” left out
as §2

NCI-H3255 = assay: Growth of cancer cells (Cell Titer-Glo viability), NCI-H3255; type: cell-based; conditions: Homo sapiens; NCI-H3255 (EGFR L858R mutant), 72 hrs
Excerpt: as §1, §2

BaF3-FL-EGFR-Del19 = assay: Cell growth (Cell Titer-Glo viability), BaF3-FL-EGFR-Del19; type: cell-based; conditions: Mus musculus; BaF3-FL-EGFR-Del19 (EGFR delE746_A750 mutant kinase), 72 hrs
In short: as §4

NCI-H460 = assay: Growth of cancer cells (Cell Titer-Glo viability), NCI-H460; type: cell-based; conditions: Homo sapiens; NCI-H460 (wild-type EGFR), 72 hrs
Excerpt: as §1, §2

NCI-H2122 = assay: Growth of cancer cells (Cell Titer-Glo viability), NCI-H2122; type: cell-based; conditions: Homo sapiens; NCI-H2122 (wild-type EGFR), 72 hrs
CHL = assay: Cell growth (Cell Titer-Glo viability), CHL; type: cell-based, Chinese hamster; conditions: Cricetulus griseus; CHL Chinese hamster lung cell, 72 hrs; read-out: GI50
BaF3-ALK-F1174L = assay: Cell growth (Cell Titer-Glo viability), BaF3-ALK-F1174L; type: cell-based; conditions: Mus musculus; BaF3-ALK-F1174L (mutant ALK F1174L kinase), 72 hrs
In short: as §4

BaF3-TEL-EGFR = assay: Cell growth (Cell Titer-Glo viability), BaF3-TEL-EGFR; type: cell-based; conditions: Mus musculus; BaF3-TEL-EGFR (stably expressing EGFR kinase), 72 hrs
Excerpt: as §1, §2

NCI-H2228 = assay: Growth of cancer cells (Cell Titer-Glo viability), NCI-H2228; type: cell-based; conditions: Homo sapiens; NCI-H2228 (wild-type ALK), 72 hrs
CHO = assay: Cell growth (Cell Titer-Glo viability), CHO; type: cell-based, Chinese hamster; conditions: Cricetulus griseus; CHO Chinese hamster ovary cell, 72 hrs; read-out: GI50
A431 = assay: Growth of cancer cells (Cell Titer-Glo viability), A431; type: cell-based; conditions: Homo sapiens, A-431; A431 (wild-type EGFR), 72 hrs; read-out: GI50
HCC4006 = assay: Growth of cancer cells (Cell Titer-Glo viability), HCC4006; type: cell-based; conditions: Homo sapiens; HCC4006 (mutant EGFR del19), 72 hrs
Excerpt: as §1, §2

BaF3-NPM-ALK = assay: Cell growth (Cell Titer-Glo viability), BaF3-NPM-ALK; type: cell-based; conditions: Mus musculus; BaF3-NPM-ALK (stably expressing ALK kinase), 72 hrs

GI50 (BaF3-EML4-ALK) [nM]	GI50 (BaF3-TEL-INSR) [nM]	GI50 (NCI-H1975) [nM]	GI50 (BaF3-TEL-JAK3) [nM]	GI50 (PC-9) [nM]	GI50 (BaF3-TEL-ALK) [nM]	GI50 (A549) [nM]	GI50 (NCI-H3122) [nM]	GI50 (BaF3) [nM]	GI50 (BaF3-TEL-EGFR-T790M) [nM]	GI50 (HCC827) [nM]	GI50 (BaF3-TEL-IGF1R) [nM]	SMILES	also measured
13	2.3	50	59	7.2	10	370	4.4	2900	28	13	14	C=CC(=O)Nc1cc(Nc2ncc(Cl)c(Nc3ccccc3C(=O)NC)n2)c(OC)cc1N1CCN(C)CC1 [Compound 64, 2-(2-(5-acrylamido-2-methoxy-4-(4-methylpiperazin-1-yl)phenylamino)-5-chloropyrimidin-4-ylamino)-N-methylbenzamide]	
35	1.8	14	110	9.6	13	450	4.4	5400	28	14	7.7	C=CC(=O)Nc1cc(Nc2ncc(Cl)c(Nc3ccccc3C(=O)NC)n2)c(OC)cc1N1CCC(N2CCOCC2)CC1 [Compound 67, 2-(2-(5-acrylamido-2-methoxy-4-(4-morpholinylpiperidin-1-yl)phenylamino)-5-chloropyrimidin-4-ylamino)-N-methylbenzamide]	
8.6	< 0.3	5.1	45	4.2	3.1	220	3.5	2100	30	13	2	C=CC(=O)Nc1cc(Nc2ncc(Cl)c(Nc3ccccc3C(=O)NC)n2)c(OC)cc1N1CCN(CC)CC1 [Compound 65]	
		59		50	< 0.3		< 0.3	1600	100	6.2		C=CC(=O)Nc1cc(Nc2ncc(C)c(Nc3ccccc3S(=O)(=O)C(C)C)n2)c(OC)cc1N1CCC(N2CCN(C)CC2)CC1 [Compound 24, N-(5-(4-(2-(isopropylsulfonyl)phenylamino)-5-methylpyrimidin-2-ylamino)-4-methoxy-2-(4-(4-methylpiperazin-1-yl)piperidin-1-yl)phenyl)acrylamide]	GI50 (NCI-H3255): 130 nM; GI50 (BaF3-FL-EGFR-Del19): 2 nM; GI50 (NCI-H460): 680 nM; GI50 (NCI-H2122): 230 nM; GI50 (CHL): 660 nM; GI50 (BaF3-ALK-F1174L): 16 nM; GI50 (BaF3-TEL-EGFR): 810 nM; GI50 (NCI-H2228): 330 nM; GI50 (CHO): 1700 nM; GI50 (A431): 440 nM; GI50 (HCC4006): 14 nM; GI50 (BaF3-NPM-ALK): 2 nM
